Data taken from ChEMBL document CHEMBL1201862, “PubChem BioAssay data set” (2004).
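Cells were grown in 96-well plates and exposed to each compound for 48 hours at five concentrations; endpoints were interpolated linearly between bracketing concentrations, or set to the highest concentration if not reached. At the GI50, growth is halved.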 Active and inactive are the calls of the source. Rule as the data show it: active = GI50 up to about 1.1 µM and inactive = higher.

Key:
Assay in all cases: DTP human tumour cell line panel, 48 h
786-0 = test system: 786-0
A498 = test system: A498
A549 = test system: A549
ACHN = test system: ACHN
BT-549 = test system: BT-549
CAKI-1 = test system: CAKI-1
CCRF-CEM = test system: CCRF-CEM
COLO 205 = test system: COLO 205
DU-145 = test system: DU-145
EKVX = test system: EKVX
HCC 2998 = test system: HCC 2998
HCT-116 = test system: HCT-116
HCT-15 = test system: HCT-15
HL-60 = test system: HL-60
HOP-62 = test system: HOP-62
HOP-92 = test system: HOP-92
HT-29 = test system: HT-29
Hs-578T = test system: Hs-578T
IGROV-1 = test system: IGROV-1
K562 = test system: K562
KM12 = test system: KM12
LOX IMVI = test system: LOX IMVI
M14 = test system: M14
MCF7 = test system: MCF7
MDA-MB-231 = test system: MDA-MB-231
MDA-MB-435 = test system: MDA-MB-435
MOLT-4 = test system: MOLT-4
Malme-3M = test system: Malme-3M
NCI-H226 = test system: NCI-H226
NCI-H23 = test system: NCI-H23
NCI-H460 = test system: NCI-H460
NCI-H522 = test system: NCI-H522
NCI/ADR-RES = test system: NCI/ADR-RES
OVCAR-3 = test system: OVCAR-3
OVCAR-4 = test system: OVCAR-4
OVCAR-5 = test system: OVCAR-5
OVCAR-8 = test system: OVCAR-8
PC-3 = test system: PC-3
RPMI-8226 = test system: RPMI-8226
RXF 393 = test system: RXF 393
SF-268 = test system: SF-268
SF-295 = test system: SF-295
SF-539 = test system: SF-539
SK-MEL-28 = test system: SK-MEL-28
SK-MEL-2 = test system: SK-MEL-2
SK-MEL-5 = test system: SK-MEL-5
SK-OV-3 = test system: SK-OV-3
SN12C = test system: SN12C
SNB-75 = test system: SNB-75
SR = test system: SR
T47D = test system: T47D
TK-10 = test system: TK-10
U-251 = test system: U-251
UACC-257 = test system: UACC-257
UACC-62 = test system: UACC-62
UO-31 = test system: UO-31
SNB-19 = test system: SNB-19
SW-620 = test system: SW-620

## [O-][n+]1cc(SCc2ccccc2)ncc1SCc1ccccc1
786-0
  GI50: > 10 µM (inactive)
A498
  GI50: > 10 µM (inactive)
A549
  GI50: > 10 µM (inactive)
ACHN
  GI50: > 10 µM (inactive)
BT-549
  GI50: 0.811 µM (active)
CAKI-1
  GI50: > 10 µM (inactive)
CCRF-CEM
  GI50: > 10 µM (inactive)
COLO 205
  GI50: > 10 µM (inactive)
DU-145
  GI50: > 10 µM (inactive)
EKVX
  GI50: > 10 µM (inactive)
HCC 2998
  GI50: > 10 µM (inactive)
HCT-116
  GI50: > 10 µM (inactive)
HCT-15
  GI50: > 10 µM
HL-60
  GI50: > 10 µM (inactive)
HOP-62
  GI50: > 10 µM (inactive)
HOP-92
  GI50: > 10 µM (inactive)
HT-29
  GI50: > 10 µM (inactive)
Hs-578T
  GI50: > 10 µM (inactive)
IGROV-1
  GI50: > 10 µM (inactive)
K562
  GI50: > 10 µM (inactive)
KM12
  GI50: > 10 µM (inactive)
LOX IMVI
  GI50: > 10 µM (inactive)
M14
  GI50: > 10 µM (inactive)
MCF7
  GI50: > 10 µM (inactive)
MDA-MB-231
  GI50: > 10 µM (inactive)
MDA-MB-435
  GI50: > 10 µM (inactive)
MOLT-4
  GI50: > 10 µM (inactive)
Malme-3M
  GI50: > 10 µM (inactive)
NCI-H226
  GI50: > 10 µM (inactive)
NCI-H23
  GI50: > 10 µM (inactive)
NCI-H460
  GI50: > 10 µM (inactive)
NCI-H522
  GI50: > 10 µM (inactive)
NCI/ADR-RES
  GI50: > 10 µM (inactive)
OVCAR-3
  GI50: > 10 µM (inactive)
OVCAR-4
  GI50: > 10 µM (inactive)
OVCAR-5
  GI50: > 10 µM (inactive)
OVCAR-8
  GI50: > 10 µM (inactive)
PC-3
  GI50: > 10 µM (inactive)
RPMI-8226
  GI50: > 10 µM (inactive)
RXF 393
  GI50: > 10 µM (inactive)
SF-268
  GI50: > 10 µM (inactive)
SF-295
  GI50: > 10 µM (inactive)
SF-539
  GI50: > 10 µM (inactive)
SK-MEL-28
  GI50: > 10 µM (inactive)
SK-MEL-2
  GI50: > 10 µM (inactive)
SK-MEL-5
  GI50: > 10 µM (inactive)
SK-OV-3
  GI50: > 10 µM (inactive)
SN12C
  GI50: > 10 µM (inactive)
SNB-75
  GI50: > 10 µM (inactive)
SR
  GI50: > 10 µM (inactive)
T47D
  GI50: > 10 µM (inactive)
TK-10
  GI50: > 10 µM (inactive)
U-251
  GI50: > 10 µM (inactive)
UACC-257
  GI50: > 10 µM (inactive)
UACC-62
  GI50: > 10 µM (inactive)
UO-31
  GI50: > 10 µM (inactive)

## CCOC(=O)CCC(NC(=O)c1ccc(Nc2nc3cc(C(F)(F)F)ccc3nc2-c2ccccc2)cc1)C(=O)OCC (stereo not given)
786-0
  GI50: 29.6 µM (inactive)
A498
  GI50: 5.35 µM (inactive)
A549
  GI50: > 100 µM (inactive)
ACHN
  GI50: 21 µM (inactive)
BT-549
  GI50: 25.2 µM (inactive)
CAKI-1
  GI50: 20.5 µM (inactive)
CCRF-CEM
  GI50: 27.8 µM (inactive)
COLO 205
  GI50: 22.4 µM (inactive)
DU-145
  GI50: 24.5 µM (inactive)
EKVX
  GI50: 20.2 µM (inactive)
HCC 2998
  GI50: 24.3 µM (inactive)
HCT-116
  GI50: 26.4 µM (inactive)
HCT-15
  GI50: 24.7 µM
HL-60
  GI50: 36.1 µM (inactive)
HOP-62
  GI50: > 100 µM (inactive)
HOP-92
  GI50: 17.7 µM (inactive)
HT-29
  GI50: 25.8 µM (inactive)
Hs-578T
  GI50: 19.7 µM (inactive)
IGROV-1
  GI50: 14.7 µM (inactive)
K562
  GI50: 23.4 µM (inactive)
KM12
  GI50: 17.7 µM (inactive)
LOX IMVI
  GI50: 19.8 µM (inactive)
M14
  GI50: > 100 µM (inactive)
MCF7
  GI50: 20.6 µM (inactive)
MDA-MB-231
  GI50: 20.3 µM (inactive)
MDA-MB-435
  GI50: 28.8 µM (inactive)
MOLT-4
  GI50: 16.9 µM (inactive)
Malme-3M
  GI50: 28.2 µM (inactive)
NCI-H226
  GI50: 20.7 µM (inactive)
NCI-H23
  GI50: 20.7 µM (inactive)
NCI-H460
  GI50: 24.4 µM (inactive)
NCI/ADR-RES
  GI50: 19.5 µM (inactive)
OVCAR-3
  GI50: > 100 µM (inactive)
OVCAR-4
  GI50: 21.9 µM (inactive)
OVCAR-5
  GI50: > 100 µM (inactive)
OVCAR-8
  GI50: 20.6 µM (inactive)
PC-3
  GI50: > 100 µM (inactive)
RPMI-8226
  GI50: 24.7 µM (inactive)
RXF 393
  GI50: > 100 µM (inactive)
SF-268
  GI50: 22.3 µM (inactive)
SF-295
  GI50: 33.4 µM (inactive)
SF-539
  GI50: 31.3 µM (inactive)
SK-MEL-28
  GI50: 26.5 µM (inactive)
SK-MEL-2
  GI50: > 100 µM (inactive)
SK-MEL-5
  GI50: 18.6 µM (inactive)
SK-OV-3
  GI50: 30.5 µM (inactive)
SN12C
  GI50: 19.3 µM (inactive)
SNB-19
  GI50: 21.5 µM (inactive)
SNB-75
  GI50: 15.2 µM (inactive)
SR
  GI50: 13.2 µM (inactive)
SW-620
  GI50: 30.5 µM (inactive)
T47D
  GI50: 16.4 µM (inactive)
TK-10
  GI50: 19.6 µM (inactive)
U-251
  GI50: 25.3 µM (inactive)
UACC-257
  GI50: 22.8 µM (inactive)
UACC-62
  GI50: 13.3 µM (inactive)
UO-31
  GI50: 14.6 µM (inactive)

## Cc1c2cccc-2ccc2c3ccccc3n(C(=O)c3ccc(Cl)cc3)c12
786-0
  GI50: > 100 µM (inactive)
A498
  GI50: > 100 µM (inactive)
A549
  GI50: > 100 µM (inactive)
ACHN
  GI50: > 100 µM (inactive)
BT-549
  GI50: > 100 µM (inactive)
CAKI-1
  GI50: > 100 µM (inactive)
CCRF-CEM
  GI50: > 57 µM (inactive)
COLO 205
  GI50: 46.7 µM (inactive)
DU-145
  GI50: > 100 µM (inactive)
EKVX
  GI50: 34.1 µM (inactive)
HCT-116
  GI50: 96.8 µM (inactive)
HCT-15
  GI50: 10.6 µM
HL-60
  GI50: > 82.6 µM (inactive)
HOP-62
  GI50: > 100 µM (inactive)
HOP-92
  GI50: > 100 µM (inactive)
HT-29
  GI50: > 76.7 µM (inactive)
Hs-578T
  GI50: > 91.2 µM (inactive)
IGROV-1
  GI50: > 100 µM (inactive)
K562
  GI50: > 100 µM (inactive)
KM12
  GI50: 26.7 µM (inactive)
LOX IMVI
  GI50: > 100 µM (inactive)
M14
  GI50: > 100 µM (inactive)
MCF7
  GI50: 0.479 µM (active)
MDA-MB-231
  GI50: > 100 µM (inactive)
MDA-MB-435
  GI50: > 100 µM (inactive)
MOLT-4
  GI50: > 85.5 µM (inactive)
Malme-3M
  GI50: > 100 µM (inactive)
NCI-H226
  GI50: > 100 µM (inactive)
NCI-H23
  GI50: > 100 µM (inactive)
NCI-H460
  GI50: > 89.7 µM (inactive)
NCI-H522
  GI50: > 100 µM (inactive)
NCI/ADR-RES
  GI50: > 100 µM (inactive)
OVCAR-3
  GI50: > 100 µM (inactive)
OVCAR-4
  GI50: > 100 µM (inactive)
OVCAR-5
  GI50: > 100 µM (inactive)
OVCAR-8
  GI50: > 100 µM (inactive)
PC-3
  GI50: > 100 µM (inactive)
RPMI-8226
  GI50: 45.1 µM (inactive)
RXF 393
  GI50: > 100 µM (inactive)
SF-268
  GI50: > 100 µM (inactive)
SF-295
  GI50: > 100 µM (inactive)
SF-539
  GI50: > 100 µM (inactive)
SK-MEL-28
  GI50: > 100 µM (inactive)
SK-MEL-2
  GI50: > 100 µM (inactive)
SK-MEL-5
  GI50: > 100 µM (inactive)
SK-OV-3
  GI50: > 100 µM (inactive)
SN12C
  GI50: > 100 µM (inactive)
SNB-19
  GI50: > 100 µM (inactive)
SNB-75
  GI50: > 100 µM (inactive)
SR
  GI50: > 63.7 µM (inactive)
SW-620
  GI50: > 100 µM (inactive)
T47D
  GI50: 1.39 µM (inactive)
TK-10
  GI50: > 100 µM (inactive)
U-251
  GI50: > 100 µM (inactive)
UACC-257
  GI50: > 100 µM (inactive)
UACC-62
  GI50: > 100 µM (inactive)
UO-31
  GI50: > 100 µM (inactive)
